Earlier results, collected in patent US20260284036A1 (priority 2023, published 2026).

Conditions: administered orally; significant first-pass metabolism

SMILES: C=CCN1CC[C@]23c4c5ccc(O)c4O[C@H]2C(=O)CC[C@@]3(O)[C@H]1C5 [naloxone]
- apparent bioavailability: 1-2%
